Target: T1, human KSP motor domain (KSP(367H)) (Homo sapiens, UniProt P52732)
T1 construct: were used to amplify the motor domain and the neck linker region; made in house; host or cells: E. coli BL21 (DE3), vector pRSETa
T1 sequence (P52732 1-367): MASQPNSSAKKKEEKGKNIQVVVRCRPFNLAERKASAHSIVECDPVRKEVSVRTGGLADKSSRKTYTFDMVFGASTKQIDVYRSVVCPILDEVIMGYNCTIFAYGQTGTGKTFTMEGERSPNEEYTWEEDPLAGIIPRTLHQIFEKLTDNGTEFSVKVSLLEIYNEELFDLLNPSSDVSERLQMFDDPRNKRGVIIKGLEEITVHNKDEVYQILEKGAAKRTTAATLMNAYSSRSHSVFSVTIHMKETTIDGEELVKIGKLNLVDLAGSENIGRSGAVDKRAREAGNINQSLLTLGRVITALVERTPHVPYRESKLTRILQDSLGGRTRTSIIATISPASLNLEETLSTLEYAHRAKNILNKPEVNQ
Test: Kinesin ATPase in vitro assay
Format: biochemical
Settings: kinesin motor domain incubated with microtubules, 1 mM ATP and compound at 23° C.; free phosphate by quinaldine red/ammonium molybdate, absorbance 540 nm
Excerpt: I. Kinesin ATPase In Vitro Assay
Cloning and Expression of Human Poly-Histidine Tagged KSP Motor Domain (KSP(367H))
Plasmids for the expression of the human KSP motor domain construct were cloned by PCR using a pBluescript full length human KSP construct (Blangy et al., Cell, vol. 83, pp 1159-1169, 1995) as a template. The N-terminal primer 5′-[…] (SEQ.ID.NO.: 1) and the C-terminal primer 5′-[…] […] (SEQ.ID.NO.: 2)were used to amplify the motor domain and the neck linker region. The PCR products were digested with AseI and XhoI, ligated into the NdeI/XhoI digestion product of pRSETa (Invitrogen) and transformed into E. coli BL21 (DE3).
Cells were grown at 37° C. to an OD600 of 0.5. […]
The kinesin motor domain is incubated with microtubules, 1 mM ATP (1:1 MgCl2: Na-ATP), and compound at 23° C. in buffer containing 80 mM K-HEPES (pH 7.0), 1 mM EGTA, 1 mM DTT, 1 mM MgCl2, and 50 mM KCl. […] Free phosphate from the ATP hydrolysis reaction is measured via a quinaldine red/ammonium molybdate assay by adding 150 μl of quench C buffer containing a 2:1 ratio of quench A:quench B. Quench A contains 0.1 mg/ml quinaldine red and 0.14% polyvinyl alcohol; quench B contains 12.3 mM ammonium molybdate tetrahydrate in 1.15 M sulfuric acid. The reaction is incubated for 10 minutes at 23° C., and the absorbance of the phospho-molybdate complex is measured at 540 nm.

Row | IC50 [µM] | Structure (SMILES)
1 | ≤ 50 | CC(=O)N1N=C(c2cc(F)ccc2F)CC1(CC[Si](C)(C)O)c1ccccc1 (centres unmarked) [Compound 1-5, {2-[1-acetyl-3-(2,5-difluorophenyl)-5-phenyl-4,5-dihydro-1H-pyrazol-5-yl]ethyl}(dimethyl)silanol]
2 | ≤ 50 | CC(=O)N1CCN(CCC[C@@]2(c3ccccc3)CC(c3cc([Si](C)(C)C)ccc3F)=NN2C(C)=O)CC1 [Compound 3-8, 1-acetyl-4-(3-{(5S)-1-acetyl-3-[2-fluoro-5-(trimethylsilyl)phenyl]-5-phenyl-4,5-dihydro-1H-pyrazol-5-yl}propyl)piperazine]

Reference: patent publication US7625936B2, “Mitotic kinesin inhibitors” (Merck & Co. Inc., priority 2005, dated 2009)
